Source: patent US6613762B2, “Gambogic acid, analogs and derivatives as activators of caspases and inducers of apoptosis” (Cytovia, Inc., priority 1999, dated 2003)

System: T47D cells
Test: Morphological change of T47D cells (phase contrast)
Type: cell-based, human
Conditions: 2.5 μM
Method: In addition, apoptotic adherent cells in culture lose their ability to remain attached to the culture dish. The ability of gambogic acid to trigger these morphological changes in T47D cells was investigated.
60 mm culture dishes were seeded with 750,000 T47D cells and the cultures were incubated under normal growth conditions (complete medium with 10% FBS) for 24 h. The cells were then treated with 2.5 μM of gambogic acid and further incubated under normal growth conditions for 2 or 6 h. Morphological changes were documented by photographing the cells under phase contrast illumination.

With `CC(C)=CCC[C@]1(C)C=Cc2c(O)c3c(c(CC=C(C)C)c2O1)O[C@]12C(=C[C@@H]4C[C@H]1C(C)(C)O[C@@]2(C/C=C(/C)C(=O)O)C4=O)C3=O` [Example 1, Gambogic Acid] as the molecule, how does the “Morphological change of T47D cells” value (2 h (FIG. 1B)) read?
Its value is “many of the cells have taken on a rounded, phase-bright morphology”.

What about the “Morphological change of T47D cells” value (6 h (FIG. 1C)) of the same molecule?
The value was “most of the cells in the culture are rounded up and are beginning to detach from the dish”.
